Measurements as given in ChEMBL document CHEMBL1201862, “PubChem BioAssay data set” (2004).
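Cultured in 96-well plates, cells were exposed to test compound for 48 hours across five concentrations. GI50 = concentration required for 50% inhibition of growth.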 Activity calls are given as the source filed them. Cut-off read from the data, not from the text of the source: active = GI50 up to about 1.1 µM and inactive = higher.

Assays:
Test in all cases: inhibition of tumour cell growth, NCI panel, 48 h
HT-29 = test system: HT-29
SNB-19 = test system: SNB-19
M14 = test system: M14
RXF 393 = test system: RXF 393
TK-10 = test system: TK-10
HL-60 = test system: HL-60
SF-539 = test system: SF-539
SK-MEL-5 = test system: SK-MEL-5
MOLT-4 = test system: MOLT-4
SF-295 = test system: SF-295
UACC-62 = test system: UACC-62
K562 = test system: K562
ACHN = test system: ACHN
SNB-75 = test system: SNB-75
SK-MEL-28 = test system: SK-MEL-28
A498 = test system: A498
786-0 = test system: 786-0
KM12 = test system: KM12

Measured: GI50

CN1Cc2ccccc2C2(COc3ccccc3C2=O)C1 (stereo not drawn)
inactive: HT-29 48 µM | SNB-19 > 100 µM | M14 > 100 µM | RXF 393 > 100 µM | TK-10 > 100 µM | HL-60 48.9 µM | SF-539 > 100 µM | SK-MEL-5 56.2 µM | MOLT-4 40.8 µM | SF-295 > 100 µM | UACC-62 > 100 µM | K562 75.2 µM | ACHN > 100 µM | SNB-75 > 100 µM

O=C1CCCC/C1=C\c1ccc(Cl)c(Cl)c1
inactive: HT-29 22.3 µM | SK-MEL-28 19.1 µM | SNB-19 25.8 µM | M14 19.9 µM | TK-10 17 µM | HL-60 19 µM | SF-539 17.2 µM | SK-MEL-5 17.2 µM | A498 58.5 µM | MOLT-4 18.1 µM | 786-0 > 10 µM | UACC-62 23.4 µM | K562 18.9 µM | ACHN 18.3 µM | SNB-75 16.3 µM

CC1=C(Cl)C=CP(=O)(Oc2ccccc2)C1 (stereo not drawn)
inactive: SK-MEL-28 26.4 µM | SNB-19 > 100 µM | M14 19.1 µM | HL-60 > 10 µM | KM12 > 100 µM | SK-MEL-5 55.6 µM | MOLT-4 > 10 µM | SF-295 > 100 µM | UACC-62 43.2 µM | K562 > 10 µM | ACHN > 100 µM

O=C(c1ccccc1)c1c(CC(O)c2ccncc2)n(C(=O)c2ccccc2)c2ccccc12 (stereo not drawn)
inactive: HT-29 17.3 µM | SK-MEL-28 17.7 µM | SNB-19 21.8 µM | M14 16.9 µM | TK-10 28.6 µM | HL-60 18.2 µM | KM12 19.2 µM | SF-539 17.9 µM | SK-MEL-5 16.1 µM | MOLT-4 18.2 µM | SF-295 12.1 µM | 786-0 17 µM | UACC-62 16.5 µM | K562 > 10 µM | ACHN 20.2 µM | SNB-75 7.83 µM

COc1cccc2c1C(=O)c1c(O)c3c(c(O)c1C2=O)C[C@](O)(C(=O)CO)CC3OC1CC(N)C(OC2CCCCO2)C(C)O1 (stereo partly drawn)
inactive: SK-MEL-28 1.4 µM
active: HT-29 0.229 µM | SNB-19 0.0948 µM | RXF 393 0.43 µM | HL-60 < 0.01 µM | KM12 0.375 µM | SF-539 0.123 µM | SK-MEL-5 0.115 µM | A498 < 0.0411 µM | MOLT-4 < 0.01 µM | SF-295 0.0483 µM | UACC-62 0.208 µM | K562 0.188 µM | SNB-75 0.243 µM

Nc1ncnc2c(C3OC(CO)C(O)C3O)n[nH]c12 (stereo not drawn)
active: HT-29 0.0895 µM | SNB-19 0.211 µM | RXF 393 0.201 µM | HL-60 0.045 µM | KM12 0.38 µM | SF-539 0.46 µM | A498 0.484 µM | SF-295 0.427 µM | K562 0.0741 µM | SNB-75 0.196 µM
inactive: SK-MEL-5 1.41 µM | UACC-62 1.4 µM

COc1ccc(C(c2ccccc2)(c2ccc(OC)cc2)N2C(=O)NC3C(CCCCC(=O)NCCCCCCOP(OCCC#N)N(C(C)C)C(C)C)SCC32)cc1 (stereo not drawn)
inactive: HT-29 14.6 µM | SK-MEL-28 15 µM | M14 18.4 µM | RXF 393 11.7 µM | TK-10 18 µM | HL-60 12.1 µM | KM12 16.2 µM | SF-539 14.5 µM | SK-MEL-5 15.3 µM | A498 17.2 µM | MOLT-4 7.57 µM | SF-295 17.1 µM | 786-0 18.1 µM | UACC-62 10.9 µM | K562 7.62 µM | ACHN 16.3 µM

C/C(=N\NC(=O)C[N+](C)(C)C)c1sc(-c2cccnc2)nc1C
inactive: HT-29 > 100 µM | SK-MEL-28 > 100 µM | M14 > 100 µM | RXF 393 52.1 µM | TK-10 > 100 µM | HL-60 > 100 µM | KM12 > 100 µM | SF-539 > 100 µM | SK-MEL-5 > 100 µM | MOLT-4 > 100 µM | SF-295 > 100 µM | 786-0 > 100 µM | UACC-62 > 100 µM | K562 > 100 µM | ACHN > 100 µM | SNB-75 > 100 µM

COC(=O)C(=O)C(C(=O)C(=O)Nc1ccc([N+](=O)[O-])cc1[N+](=O)[O-])c1nc2ccc([N+](=O)[O-])cc2nc1O (stereo not drawn)
inactive: HT-29 > 100 µM | SNB-19 > 100 µM | M14 > 100 µM | RXF 393 43.3 µM | TK-10 > 100 µM | HL-60 > 100 µM | KM12 > 100 µM | A498 76.9 µM | MOLT-4 > 100 µM | SF-295 > 100 µM | 786-0 > 100 µM | UACC-62 > 100 µM | K562 > 100 µM | ACHN > 100 µM | SNB-75 14.6 µM

CC(C)(C)C(=O)OCC1CCC(n2cnc3c(=O)[nH]c(N)nc32)O1 (stereo not drawn)
inactive: HT-29 > 100 µM | SK-MEL-28 > 100 µM | SNB-19 > 100 µM | M14 > 100 µM | TK-10 > 100 µM | KM12 > 100 µM | SF-539 > 100 µM | SK-MEL-5 > 100 µM | A498 > 100 µM | SF-295 > 100 µM | 786-0 > 100 µM | UACC-62 > 100 µM | K562 > 100 µM | ACHN > 100 µM | SNB-75 40 µM

N=C(NC(=N)Nc1ccc(S(=O)(=O)Nc2cnc3ccccc3n2)cc1)Nc1ccc(Br)cc1
inactive: HT-29 > 100 µM | SK-MEL-28 > 100 µM | SNB-19 > 100 µM | M14 > 100 µM | TK-10 > 100 µM | KM12 > 100 µM | SF-539 > 100 µM | SK-MEL-5 > 100 µM | A498 > 100 µM | MOLT-4 > 100 µM | SF-295 > 100 µM | 786-0 > 100 µM | UACC-62 > 100 µM | K562 > 100 µM | ACHN > 100 µM | SNB-75 40.6 µM

NC(=O)c1ncn(Cc2ccccc2)c1CNC(N)=S
inactive: HT-29 > 100 µM | SK-MEL-28 > 100 µM | SNB-19 > 100 µM | M14 > 100 µM | RXF 393 > 100 µM | TK-10 > 100 µM | HL-60 > 100 µM | KM12 > 100 µM | SF-539 > 100 µM | SK-MEL-5 > 100 µM | MOLT-4 > 100 µM | SF-295 > 100 µM | 786-0 > 100 µM | UACC-62 > 100 µM | K562 > 100 µM | ACHN > 100 µM | SNB-75 91.4 µM

CCCCN(CCCC)C(=O)C(=O)C(C(=O)c1ccc(OC)cc1)c1ccc(OC)cc1 (stereo not drawn)
inactive: HT-29 > 100 µM | SK-MEL-28 > 100 µM | SNB-19 > 100 µM | M14 92.3 µM | RXF 393 35.5 µM | TK-10 > 100 µM | HL-60 > 100 µM | KM12 > 100 µM | SF-539 > 100 µM | SK-MEL-5 69 µM | MOLT-4 > 100 µM | SF-295 > 100 µM | 786-0 > 100 µM | UACC-62 56.4 µM | K562 > 100 µM | ACHN > 100 µM
